One series relates to Caco-2 cells. The series is described as follows: Epithelial transcellular transport of drug activity through Caco-2 monolayers. The format is in vitro ADME. On the procedure: (§1) H4βAPP695 wt cells, a human […] cell line stably transfected with a wtβAPP695 expression vector construct under the control of a CMV promoter (kindly provided by Dr. Chris Eckman from Mayo Clinic, Florida) were cultured as previously described. Twenty-four hours before drug treatment, the media was replaced with serum-free media. Cells were then incubated with drugs (dissolved in DMSO) or vehicle for 24 h for collection of conditioned media and cell lysates. For the PKC inhibitors experiment, three inhibitors were treated 30 min prior to drug challenge. Primary cortical neurons were prepared from embryonic day 18 APP and presenilin 1 (APPswe, PSEN1dE9) transgenic mice on the C57BL/6 genetic background (Jackson Laboratories, strain no. 5864) as previously described. THLE-3 human hepatoma cells (from ATCC) were plated in 24-well plates that were precoated with 10 μg/mL bovine serum albumin, 10 μg/mL fibronectin, and 30 μg/mL bovine type I collagen. The cells were grown in BEGM media (Clonetics) until confluent and treated with drugs at 20 μM for 24 h. This conditioned media was harvested, diluted 1:1 in serum-free medium, and incubated with H4βAPP695 wt cells for 24 h prior to analysis of secreted Aβ, which was compared to the effect of 10 μM drug treatments without prior incubation with the THLE-3 cells. Caco-2 cells (ATCC) were plated in 12-well plates with Transwell inserts (Costar) at 70000 cells per well and grown for 21 days. The media volume of the apical and basal chambers was 0.5 and 1.5 mL, respectively. Transepithelial resistance was measured in each well and found to be >160 Ω/cm^2. Drugs at 40 μM and 20 μg/mL of lucifer yellow were added in serum-free medium to the apical chamber. Four hours later, the basal chamber media was harvested and used to measure lucifer yellow fluorescence to confirm monolayer integrity as well as for treatment of H4βAPP695 wt cells for 24 h prior to analysis of secreted Aβ, which was compared to the effect of direct addition of 10 μM of the corresponding drug.
Monolayer integrity was confirmed by high levels of transcellular electrical resistance (>160 ohms/cm^2) and by transcellular impermeability to the fluorescent dye lucifer yellow. […] The concentration of each compound added to the upper chamber would lead to 10 μM in the lower chamber if equilibration was complete, and thus the activity of the lower chamber media was compared to the activity of 10 μM drug added directly to the H4βAPP695 wt cells. […] Compound 1 crossed the monolayer and the bottom chamber media led to a 27% reduction in Aβ production, yielding 38% of the theoretical activity. The compound with the most activity in the lower chamber was compound 48, which decreased Aβ production by 50%, with 71% of its theoretical activity. […] On the basis of the combined activity data from these last two studies, compound 48 was selected as the lead drug for in vivo study.
For orientation: Caco-2 monolayers are a common model of the intestinal barrier.

Series [1] has as its system THLE-3 human hepatoma cells. The series is described as follows: Drug activity persistence after incubation with THLE-3 hepatoma cells. The series is classed as in vitro ADME. As to conditions: for inhibition at 10 µM: Homo sapiens, THLE3, 24 h. On the procedure:
as §1
To screen for resistance to metabolism, 1 and eight noncytotoxic analogues with >50% Aβ reducing activity (compounds 27, 29, 48, 52, 53, 65, 73, and 76) were incubated at 20 μM for 24 h with or without THLE-3 human hepatoma cells.

A short description of series [2]: Body weight after one-week oral feeding. The series is classed as in vivo, mouse. Conditions: 0.31-2.5 g/kg in chow diet. On the procedure: (§2) In this Example, mutant APP/PS1 transgenic mice were obtained from Dr. Mathias Jucker (R Radde et al. 2006, EMBO Reports 7:940-946). […] The drug was milled into the chow diet (Harlan Teklad #2018) at 4 doses: 0.31, 0.62, 1.25, and 2.5 g/kg. Assuming each mouse eats 4 g of per day, the lowest dose should yield 1.24 mg intake per day, or about 75 mg/kg body weight. Six-week old female transgenic mice were fed ad librium with the chow diet or the diet supplemented with the four drug doses. […] At the end of the study, brains were isolated, and half brains were homogenized in a buffer containing guanidine hydrochloride and SDS. This extract was diluted and used in assays for total protein and an ELISA for Abeta levels. […] There was not a dose response in this study, as the effect appeared to plateau out even at the lowest dose of the drug, 0.31 g/kg diet. This oral diet study supported a prior finding using 3 oral gavages of this drug at an estimated dose of 200 mg/kg body weight delivered in Cremaphor over a 1.5 day period in which we observed a 30% decrease in cerebral Aβ levels (data not shown).

In series [3] the test system is cerebral Aβ levels. The series is described as follows: In vivo iv administration and cerebral Aβ assay. Conditions: APP/PS1 transgenic mice, iv 100 to 125 mg/kg single dose, 6 h. On the set-up: species or system mouse. On the procedure:
Transgenic mice expressing humanized mutant versions of APP and presenilin 1 (APPswe, PSEN1dE9) on the C57BL/6 genetic background were obtained from Jackson Laboratories (strain no. 5864) and bred to wild type C57BL/6 mice in order to obtain ˜50% transgenic that were used in these studies. These mice develop Aβ senile plaques by 6 months of age. To prepare the drug stock, 17.5 mg of compound 48 was dissolved in 40 μL of DMSO, which was mixed sequentially with 110 μL of Cremophor EL (Sigma) and 900 μL of sterile saline. Two month old female transgenic mice weighing 20-25 g were anesthetized with ketamine/xylazine and injected iv via the retroorbital plexus with vehicle control or with 2.5 mg of compound 48 in 150 μL of the drug stock (yielding a dose of ˜100 to 125 mg/kg). Six h later, the mice were euthanized by CO2 inhalation, the brains were removed, and the cerebellum discarded. One brain hemisphere was homogenized for 45 s on ice using a tissue grinder in 1 mL of solution containing 5 M guanadine HCl, 50 mM Tris (final pH adjusted to 8.3), and 5% protease inhibitor cocktail. Any debris was removed by centrifugation for 10 min at 2000 g. The supernatant was diluted 1:10 in 20% casein blocker in PBS with 5% protease inhibitor cocktail. […] The protein concentration of the brain homogenate was determined with the BCA assay, and the total Aβ levels were normalized to brain protein levels. […]

Series [4] relates to cerebral Aβ levels. The series is described as follows: Oral treatment and cerebral Aβ ELISA in mutant APP/PS1 transgenic mice. The format is in vivo, mouse. Conditions: 3 oral gavages, estimated 200 mg/kg in Cremaphor over 1.5 day. On the procedure: as §2
The subject of a further series is Aβ secretion. The series is described as follows: Secreted total Aβ ELISA in conditioned media of H4βAPP695 wt cells. The format is cell-based, human. In a few lines: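 H4 […] cells stably expressing wild-type βAPP695 (CMV promoter), serum-starved 24 h, then exposed to drug in DMSO or vehicle for 24 h before Aβ in conditioned media was measured. Primary cortical neurons came from E18 APPswe/PSEN1dE9 mice on C57BL/6 background.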
(In general: ELISA stands for enzyme-linked immunosorbent assay.)

In the next series the test system is H4βAPP695 wt cells. The series is described as follows: Cytotoxicity by total cell protein content (BCA) of H4βAPP695 wt cells. As to conditions: cytotoxicity.

These results are taken from patent US20130158112A1, “COMPOSITIONS AND METHODS FOR INHIBITING BETA AMYLOID SECRETION” (priority 2011, published 2013).

Molecules are shown by their SMILES. Several values for one entry are separate records, joined by “and”; a condition that tells them apart may be missing. Equal values may be shown once. Read-outs that look alike come from different tables or passages of the source.

For orientation: melting point means the temperature of the solid-liquid transition. Compound `Cc1cccc(CSCCNC(=O)c2c(Cl)cccc2Cl)c1` [Compound 48, 2,6-Dichloro-N-[2-(3-methyl-benzylsulfanyl)-ethyl]-benzamide] gave a melting point of 56 to 57 °C. Also, in the series on Caco-2 cells (% of activity passing through Caco-2 monolayer), the “% theoretical activity” value was 71% and 70.8%. Also, the inhibition at 10 µM in the series with Caco-2 cells (Homo sapiens, Caco-2, 10 μM drug alone added directly to H4βAPP695 wt cells, read-out: transcellular transport No total Aβ (% decrease)) was 70.5%. The inhibition at up to 10 µM in the series with Caco-2 cells (Homo sapiens, Caco-2, 4 h, lower chamber media after 4 h on Caco-2 monolayer, 10 μM if in equilibrium, read-out: transcellular transport Yes total Aβ (% decrease)) was 50%. Also, in series [1] (10 μM on H4 cells, without preincubation with hepatoma cells, read-out: hepatoma incubation No total Aβ (% decrease)), the inhibition at 10 µM amounted to 70.5%. In addition, the inhibition at 10 µM in series [1] (20 μM preincubated 24 h with THLE-3 hepatoma cells, diluted to 10 μM on H4 cells, read-out: hepatoma incubation Yes total Aβ (% decrease)) turned out to be 38%. Besides, in series [1] (after 24 h incubation with hepatoma cells), the “% remaining Activity” value stood at 54%. For the same compound, the “effect on body weights” value in series [2] is reported as “no significant effect”. Besides, the “reduction in cerebral Aβ levels” value with cerebral Aβ levels [3] worked out at 39.6%. For the same compound, in the series on cerebral Aβ levels [4], the “decrease in cerebral Aβ levels, oral gavage” value was 30%. For the same compound, in the series on Aβ secretion (Homo sapiens, 24 h, 30 μM, H4βAPP695 wt cells, 24 h, read-out: Total Aβ (% decrease) 30 μM Mean), the inhibition at 30 µM was determined as 85.8%. In addition, in the series with Aβ secretion (in words), the “Aβ secretion inhibiting activity (structure activity summary)” value was “good activity”. Besides, in the series with H4βAPP695 wt cells (10 μM), the “Cell protein (% decrease) 10 μM Mean” value came out at 11.7%. The “Cell protein (% decrease) 30 μM Mean” value in the series with H4βAPP695 wt cells (30 μM) was found to be 16.6%.
